Test results taken from patent US9567301B2, “Pyrrol-1-yl benzoic acid derivatives useful as myc inhibitors” (Whitehead Institute for Biomedical Research, priority 2012, dated 2017).
Read-outs that look alike come from different tables or passages of the source.

Experiments:
H2171 cells = test: Cell viability assay (ATPlite), H2171; format: cell-based, human; conditions: cell viability, three days, ATPlite, NA: inactive under assay conditions
Outline: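 Cells seeded at 60,000 cells/mL and dosed immediately by pin transfer in 10-point quadruplicate dose response from DMSO stocks. After three days at 37 °C, viability was read by ATPlite luminescence after 15 min at room temperature.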

MM1S cells = test: Cell viability assay (ATPlite), MM1S; format: cell-based, human; conditions: cell viability, three days, ATPlite, NA: inactive under assay conditions
Description: (§1) This assay was used for the H2171 and MM1S cell data shown in Table 2, and for the Jurkat (an immortalized line of human T lymphocyte cells), Ly1 (OCI-Ly1 human non-Hodgkin lymphoma cell line), Ly4 (OCI-Ly4 human non-Hodgkin lymphoma cell line), H2172 (NCI-H2172 human non-small cell lung cancer cell line), and CA-46 (a human Burkitt's lymphoma cell line) cell data shown in Table 3 and FIG. 12. Cells were counted and adjusted to 60,000 cells/mL. Using a Biotek EL406, 50 μL of cells are media were distributed into 384 well white plates from Thermo. Immediately after plating, compound in DMSO was distributed to plates. For large plate sets, cells were returned to 37° C. incubator while not in use.
(§2) Compounds were added to plates using a 100 nL 384 well pin transfer manifold on a Janus workstation. Stocks were arrayed in 10 point quadruplicate dose response in DMSO stock in 384 well Greiner compound plates. After addition of compound, plates were incubated for three days in a 37° C. incubator.
(§3) Cell viability was read out using ATPlite from Perkin Elmer. Plates were removed from the incubator and brought to room temperature prior to use. Lyophilized powder was resuspended in lysis buffer and diluted 1:2 with DI water. 25 μL of this solution was added to each well using the Biotek liquid handler. Plates were sealed with adherent aluminum seals prior to vortexing and spinning down at 1000 g for 1 minute. Plates were incubated for 15 minutes at room temperature before signal was read on an Envision Plate Reader.

Jurkat cells = test: Cell viability assay (ATPlite), Jurkat; format: cell-based, human; conditions: class symbols, NA: not active under assay conditions
Description: as §1, §2, §3

c-Myc/Max/Ebox DNA = c-Myc/Max/Ebox DNA (Homo sapiens, UniProt P01106); test: c-Myc/Max/Ebox DNA AlphaScreen assay; format: binding; set-up: An exemplary assay uses full-length human c-Myc and Max proteins; his6 (cleaved yes); made in house
Sequence of c-Myc/Max/Ebox DNA (P01106 16-454): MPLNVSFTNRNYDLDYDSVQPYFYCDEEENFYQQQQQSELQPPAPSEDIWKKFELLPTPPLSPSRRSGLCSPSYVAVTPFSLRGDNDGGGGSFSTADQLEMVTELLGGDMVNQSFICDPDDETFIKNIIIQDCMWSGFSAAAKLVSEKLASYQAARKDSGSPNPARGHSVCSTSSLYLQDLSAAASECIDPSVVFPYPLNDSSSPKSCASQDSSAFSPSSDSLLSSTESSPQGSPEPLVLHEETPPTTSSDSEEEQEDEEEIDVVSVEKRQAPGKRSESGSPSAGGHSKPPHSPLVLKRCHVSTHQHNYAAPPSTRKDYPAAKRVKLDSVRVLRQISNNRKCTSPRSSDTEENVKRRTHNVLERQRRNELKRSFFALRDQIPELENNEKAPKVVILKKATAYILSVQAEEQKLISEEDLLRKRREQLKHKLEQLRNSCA
Outline: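 Proximity read-out of Myc–Max–DNA complex formation in 50 mM HEPES pH 8.0 with 500 μM DTT. Compounds contact tag-free c-Myc (25 nM), Ebox oligo (10 nM) and acceptor beads first. His6-Max (1.25 nM) with donor beads follows, then 2 h incubation in low light with DMSO ≤2% v/v.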

MITF/MITF/Ebox DNA = molecular target: T1, MITF/MITF/Ebox DNA (Homo sapiens, UniProt O75030); test: Gelshift assay, MITF/MITF/Ebox DNA complex formation; format: binding; conditions: relative to DMSO at 2.5 µM (FIG. 9)
T1 sequence (O75030 1-526): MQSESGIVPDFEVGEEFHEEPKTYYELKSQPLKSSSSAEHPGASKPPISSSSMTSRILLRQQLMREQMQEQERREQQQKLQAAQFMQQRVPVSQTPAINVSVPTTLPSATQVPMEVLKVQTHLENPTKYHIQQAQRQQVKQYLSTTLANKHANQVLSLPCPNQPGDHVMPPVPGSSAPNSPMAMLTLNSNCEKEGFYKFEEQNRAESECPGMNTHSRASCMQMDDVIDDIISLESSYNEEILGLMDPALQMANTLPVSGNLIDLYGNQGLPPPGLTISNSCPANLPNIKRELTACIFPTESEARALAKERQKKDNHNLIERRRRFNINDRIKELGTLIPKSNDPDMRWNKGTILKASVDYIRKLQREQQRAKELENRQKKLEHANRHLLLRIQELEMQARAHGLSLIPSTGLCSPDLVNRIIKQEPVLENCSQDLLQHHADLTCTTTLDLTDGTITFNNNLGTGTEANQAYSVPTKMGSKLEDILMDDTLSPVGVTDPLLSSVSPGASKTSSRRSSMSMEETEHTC
Description: Compounds tested at 2.5 μM for their inhibitory activity against c-Myc/Max/Ebox DNA, Max/Max/Ebox DNA and MITF/MITF/Ebox DNA complex formation using gelshift assays.
AlphaScreen hits can be validated using orthogonal biochemical assays such as a gelshift assay (also called an electrophoretic mobility shift assay) with purified components or cellular lysates. FIG. 5 (left) illustrates how the AlphaScreen hit 63 was validated using a gelshift assay with purified c-Myc, Max and Ebox DNA. […] Compounds and analogs were then examined for potency and selectivity against structurally similar transcription factor:DNA complexes, such as Max/Max/Ebox DNA and MITF/MITF/Ebox DNA. Data in FIG. 9 show how analogs can be tested for potency against structurally similar transcription factors and how medicinal chemistry optimization can drive potency and selectivity against different transcription factor:DNA complexes. […] The selectivity among structurally similar transcription factors can also provide insights into compound mechanism of action. […] Cellular assays can compliment the biochemical analyses to measure the cellular potency of compounds to induce cellular phenotypes expected as a result of loss of transcription factor function. This includes gene expression analysis, chromatin immunoprecipitation (ChIP) analysis, cellular proliferation analysis and cell state analysis. Gene expression analysis can be performed using qRT-PCR, Nanostring technology, microarray technology, or RNA-seq technology to study transcript changes following treatment with compound. ChIP analysis can be performed on the factor of interest to study if compound treatment alters its genomic occupancy. Cellular proliferation and cell state analysis can indicate if the compound alters cell cycle progression or cellular identity. Thus, the approach using biochemical and cellular assays with large chemical libraries or focused libraries of hits identified in high throughput screens can serve as a platform to develop inhibitors of transcription factor function.

[1] = class symbols, NA: not active under assay conditions, read-out: Myc/Max IC50
[2] = c-Myc/Max/Ebox DNA AlphaScreen, NA: inactive under assay conditions, read-out: Biochemical IC50

Row | Compound | EC50 (Jurkat cells; Homo sapiens, Jurkat) | IC50 (c-Myc/Max/Ebox DNA; [1]) | other results
1 | Cc1ccc(C)n1-c1ccccc1C(=O)O [Compound 1] | ≥ 100 µM | 10 to 100 µM | EC50 (H2171 cells): 93.5 µM; EC50 (MM1S cells): 132 µM
2 | Cc1ncc(CO)c(/C=N/NC(=O)c2ccc(C(=O)O)c(-n3c(C)ccc3C)c2)c1O [Compound 80] | ≥ 100 µM | 1 to 10 µM | EC50 (H2171 cells; Homo sapiens, NCI-H2171, 72 h): 400 µM
3 | Cc1ccc(C)n1-c1cc(C(=O)N/N=C/c2ccc(-c3nnn[nH]3)cc2)ccc1C(=O)O [Compound 92] |  |  | EC50 (MM1S cells; Homo sapiens, MM1.S, 72 h): 731 µM; MITF/MITF/Ebox DNA complex formation (MITF/MITF/Ebox DNA): most potent of the compounds tested; IC50 (c-Myc/Max/Ebox DNA; [2]): 1.66 µM
4 | Cc1ccc(C)n1-c1ccccc1-c1nnn[nH]1 [Compound 162] | ≥ 100 µM | ≥ 100 µM | EC50 (H2171 cells; Homo sapiens, NCI-H2171, 72 h): 24.2 µM; EC50 (MM1S cells; Homo sapiens, MM1.S, 72 h): 66 µM; IC50 (c-Myc/Max/Ebox DNA; [2]): 151 µM
5 | Cc1ccc(C)n1-c1cc(C(=O)N2CCN(c3cccc(C(=O)O)c3)CC2)ccc1C(=O)O [Compound 195] | ≥ 100 µM | < 1 µM | 
6 | Cc1ccc(C)n1-c1cc(CNCc2cccc(C(=O)O)c2)ccc1C(=O)O [Compound 196] | ≥ 100 µM | 1 to 10 µM | 
7 | O=C(O)c1ccccc1-n1c(Br)ccc1C(F)(F)F [Compound 197] | ≥ 100 µM | 10 to 100 µM | 
8 | Cc1ccc(C)n1-c1cc(C(=O)N2CCN(c3ccccc3C(=O)O)CC2)ccc1C(=O)O [Compound 198] | ≥ 100 µM | 1 to 10 µM | 
9 | Cc1ccc(C)n1-c1cc(C(=O)N2CCN(c3ccc(C(=O)O)cc3)CC2)ccc1C(=O)O [Compound 199] | 10 to 100 µM | 1 to 10 µM | 
10 | Cc1ccccc1C1CCCN(C(=O)c2ccc(C(=O)O)c(-n3c(C)ccc3C)c2)C1 (stereo not shown) [Compound 200] | 10 to 100 µM | ≥ 100 µM | 
11 | Cc1ccc(C)n1-c1cc(C(=O)N2CCCC(c3ccc(Cl)cc3)C2)ccc1C(=O)O (stereo not shown) [Compound 201] | 10 to 100 µM | 10 to 100 µM | 
12 | Cc1ccc(C)n1-c1cc(C(=O)N2CCC=C(c3ccc(C(=O)O)cc3)C2)ccc1C(=O)O [Compound 202] | 10 to 100 µM | 10 to 100 µM | 
13 | Cc1ccc(C)n1-c1cc(C(=O)N2CCCC(c3ccccc3C(=O)O)C2)ccc1C(=O)O (stereo not shown) [Compound 203] | ≥ 100 µM | < 1 µM | 
14 | Cc1ccc(C)n1-c1cc(C(=O)N2CCC=C(c3cccc(C(=O)O)c3)C2)ccc1C(=O)O [Compound 204] | 10 to 100 µM | 10 to 100 µM | 
15 | Cc1ccc(C)n1-c1cc(C(=O)N2CCCC(c3ccc(C(=O)NS(C)(=O)=O)cc3)C2)ccc1C(=O)O (stereo not shown) [Compound 205] | ≥ 100 µM | 1 to 10 µM | 
16 | Cc1ccc(C)n1-c1cc(-c2nnc(-c3ccc(C(=O)O)cc3)o2)ccc1C(=O)O [Compound 206] | 10 to 100 µM | 10 to 100 µM | 
17 | Cc1ccc(C)n1-c1cc(C(=O)N2CCCC(c3ccccc3O)C2)ccc1C(=O)O (stereo not shown) [Compound 207] | ≥ 100 µM | 10 to 100 µM | 

Continued, in another order:

Row | EC50 (Jurkat cells; Homo sapiens, Jurkat) | IC50 (c-Myc/Max/Ebox DNA; [1]) | Compound | other results
18 | 10 to 100 µM | 1 to 10 µM | Cc1ccc(C)n1-c1cc(C(=O)N2CCCC(c3ccc(CC(=O)O)cc3)C2)ccc1C(=O)O (stereo not shown) [Compound 208] | 
19 |  | 10 to 100 µM | Cc1ccc(C)n1-c1cc(C(=O)N2CCCC(c3ccc(C(=O)O)cc3)C2)ccc1C(=O)O (stereo not shown) [Compound 209] | EC50 (Jurkat cells): ≥ 100 µM
20 |  | 10 to 100 µM | Cc1ccc(C)n1-c1cc(C(=O)N2CCCC(c3ccc(C(=O)O)cc3)C2)ccc1C(=O)O (stereo not shown) [Compound 210] | EC50 (Jurkat cells): ≥ 100 µM
21 | ≥ 100 µM | ≥ 100 µM | COC(=O)c1ccc(C(=O)NN)cc1-n1c(C)ccc1C [Compound 211] | 
22 | 10 to 100 µM | 10 to 100 µM | Cc1cccc(C2CCCN(C(=O)c3ccc(C(=O)O)c(-n4c(C)ccc4C)c3)C2)c1 (stereo not shown) [Compound 212] | 
23 | ≥ 100 µM | ≥ 100 µM | COc1ccccc1C(=O)N1CCN(C(=O)c2ccc(C(=O)O)c(-n3c(C)ccc3C)c2)CC1 [Compound 213] | 
24 | 10 to 100 µM | ≥ 100 µM | Cc1ccc(C)n1-c1cc(Br)ccc1C(=O)NS(C)(=O)=O [Compound 214] | 
25 | ≥ 100 µM | 10 to 100 µM | Cc1cnc(C(=O)N2CCN(C(=O)c3ccc(C(=O)O)c(-n4c(C)ccc4C)c3)CC2)cn1 [Compound 215] | 
26 | ≥ 100 µM | 10 to 100 µM | Cc1ccc(C)n1-c1cc(C(=O)N2CCN(C(=O)c3cccnc3)CC2)ccc1C(=O)O [Compound 216] | 
27 | ≥ 100 µM | 10 to 100 µM | Cc1ccc(C)n1-c1cc(C(=O)N2C[C@H](c3ccccc3)[C@@H](O)C2)ccc1C(=O)O [Compound 217] | 
28 | 10 to 100 µM | 10 to 100 µM | COc1ccc(C(=O)N2CCN(C(=O)c3ccc(C(=O)O)c(-n4c(C)ccc4C)c3)CC2)cc1 [Compound 218] | 
29 | < 10 µM | 1 to 10 µM | Cc1ccc(C)n1-c1cc(-c2nnc(-c3ccc(OCc4ccccc4)c(OCc4ccccc4)c3OCc3ccccc3)o2)ccc1C(=O)O [Compound 219] | 
30 | ≥ 100 µM | 10 to 100 µM | COc1cccc(C(=O)N2CCN(C(=O)c3ccc(C(=O)O)c(-n4c(C)ccc4C)c3)CC2)c1 [Compound 220] | 
31 | ≥ 100 µM | 10 to 100 µM | Cc1ccc(C)n1-c1cc(C(=O)N2CCCC(c3ccc(C(=O)O)cc3)C2)ccc1C(=O)NS(C)(=O)=O (stereo not shown) [Compound 221] | 
32 | 10 to 100 µM | 10 to 100 µM | Cc1ccc(C)n1-c1cc(-c2nnc(-c3cccc(C(=O)NS(C)(=O)=O)c3)o2)ccc1C(=O)O [Compound 222] | 
33 | ≥ 100 µM | 10 to 100 µM | Cc1ccc(C)n1-c1cc(C(=O)O)ccc1C(=O)NS(C)(=O)=O [Compound 223] | 
34 | < 10 µM | < 1 µM | Cc1ccc(C)n1-c1cc(-c2nnc(-c3ccc(O)c(O)c3O)o2)ccc1C(=O)O [Compound 224] | 
35 | 10 to 100 µM | ≥ 100 µM | COc1cccc([C@H]2CN(C(=O)c3ccc(C(=O)O)c(-n4c(C)ccc4C)c3)C[C@@H]2O)c1 [Compound 225] | 
36 | ≥ 100 µM | 10 to 100 µM | Cc1ccc(C)n1-c1cc(C(=O)N2CCN(C(=O)c3cncc(F)c3)CC2)ccc1C(=O)O [Compound 226] | 
